Legend:
KHK-C [1] = biological target: T1, KHK-C (Homo sapiens (Human), UniProt P50053); test: Assay C: KHK assay at high fructose (8 mM) and ATP (2 mM), 1 nM KHK-C; assay type: biochemical
Excerpt: (§1) A screening assay was developed for KHK involving a coupled enzyme system which used the product of the KHK reaction to drive an absorbance signal in kinetic mode. KHK takes fructose and ATP and converts it to F1P and ADP. ADP then serves as substrate to pyruvate kinase which converts PEP to pyruvate which is then reduced to lactate by lactate dehydrogenase with the concomitant oxidation of NADH to NAD+. The resulting depletion of NADH was monitored by measuring absorbance at 340 nm.
(§2) Recombinant human KHK-C and KHK-A were expressed in E. coli as a His-tagged fusion protein and purified using Ni-NTA chromatography.
A third KHK assay, referred to as Assay C, was performed at high fructose and ATP concentrations, conditions that would be more consistent with physiological concentrations of the natural substrates of the KHK enzyme. Assay C was conducted as described above for Assay B except using 8 mM fructose and 2 mM ATP, and compound concentration range of 10 pM to 1 μM or 50 pM to 5 μM using half-log dilution scheme.

KHK-C [2] = biological target: T1, KHK-C; test: Assay A: coupled-enzyme KHK absorbance assay, 10 nM KHK-C; conditions: 10 nM KHK-C, 0.8 mM fructose, 0.2 mM ATP, avg of (#) runs
Excerpt: as §1, §2
Compounds were prepared in DMSO as 4 mM stocks, diluted using an 11-point half-log scheme on a Biomek FX (Beckman Coulter), and incubated at rt for 30 minutes with the reaction mixture containing 50 mM HEPES, pH 7.4, 140 mM KCl, 3.5 mM MgCl2, 0.8 mM fructose, 2 mM TCEP, 0.8 mM PEP, 0.7 mM NADH, 0.01% Triton X-100, 30 U/mL pyruvate kinase-lactate dehydrogenase, and 10 nM purified KHK-C. The compound concentration in each well ranged from 1 nM to 100 μM. The reaction was initiated with the addition of 0.2 mM ATP. The absorbance was measured for 30 minutes on a SpectraMax reader (Molecular Devices) after ATP was added. The concentrations provided are based on the final mixture volume of 40 μL (referred to as the final concentration).
Controls: N8-(cyclopropylmethyl)-N4-(2-(methylthio)phenyl)-2-(piperazin-1-yl)pyrimido[5,4-d]pyrimidine-4,8-diamine at 2 μM final concentration was used as high percent effect (HPE) control, and 2.5% DMSO which was present in all reaction wells was used as zero percent effect (ZPE) control. Reaction rates were obtained for 300-1800 seconds time window in units of 1000*AU/min (absorbance unit per minute), and average values for ZPE and HPE controls from 16 wells each were calculated, AveZPE and AveHPE, respectively.
Percent inhibition (% inhibition) was calculated for each well using this equation:
For each compound tested, the IC50 provided is the average based on at least two separate assays conducted on separate days.

KHK-C [3] = biological target: T1, KHK-C; test: Assay B: KHK assay with 1 nM KHK-C, absorbance for 3 hours
Excerpt: as §1
The reaction was initiated with addition of 0.2 mM ATP, and the absorbance was monitored for 3 hours at 340 nm. Reaction rates and IC50 values were calculated as described above.

KHK-A = KHK-A (Homo sapiens (Human), UniProt P50053); test: Assay D: KHK assay with 1 nM human KHK-A; conditions: read-out: IC50 (nM) Assay D 1 nM KHK-A, 8 mM fructose, 0.2 mM ATP, avg of (#) runs
Chain of KHK-A (P50053 other isoform, or with tags, fused parts or gaps): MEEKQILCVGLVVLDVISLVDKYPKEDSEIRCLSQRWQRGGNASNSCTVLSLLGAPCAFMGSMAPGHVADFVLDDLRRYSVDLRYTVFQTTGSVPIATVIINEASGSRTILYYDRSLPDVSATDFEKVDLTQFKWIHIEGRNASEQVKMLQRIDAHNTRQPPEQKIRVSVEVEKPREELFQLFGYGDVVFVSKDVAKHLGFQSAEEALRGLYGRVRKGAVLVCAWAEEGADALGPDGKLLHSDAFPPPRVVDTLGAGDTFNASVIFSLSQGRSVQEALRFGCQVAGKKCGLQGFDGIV
Excerpt: as §1
A fourth assay, referred to as Assay D, was performed using human KHK-A to assess the potency of compounds in inhibiting activity of this enzyme. […] Reaction rates and IC50 values were calculated as described above.

[4] = read-out: IC50 (nM) Assay A 10 nM KHK-C
[5] = read-out: IC50 (nM) Assay C 1 nM KHK-C, 8 mM fructose, 2 mM ATP, avg of (#) runs
[6] = read-out: IC50 (nM) Assay A (Table 4)
[7] = read-out: IC50 (nM) Assay B 1 nM KHK-C, 1 nM KHK-C, 0.2 mM ATP, 3 hours, avg of (#) runs

T1 sequence (P50053 whole entry): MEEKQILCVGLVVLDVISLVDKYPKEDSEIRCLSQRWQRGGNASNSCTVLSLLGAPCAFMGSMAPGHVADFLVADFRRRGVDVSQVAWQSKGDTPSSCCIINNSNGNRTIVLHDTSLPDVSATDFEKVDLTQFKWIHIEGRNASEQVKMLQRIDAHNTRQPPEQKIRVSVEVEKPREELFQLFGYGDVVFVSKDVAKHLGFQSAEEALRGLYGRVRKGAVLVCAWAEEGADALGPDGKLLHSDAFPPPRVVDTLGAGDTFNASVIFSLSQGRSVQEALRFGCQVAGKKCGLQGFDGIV

C[C@H]1[C@H](O)CN1c1nc(N2C[C@@H]3[C@@H](CC(=O)O)[C@@H]3C2)c(Cl)c(C(F)(F)F)c1C#N [Example 2, [(1R,5S,6R)-3-{3-chloro-5-cyano-6-[(2S,3R)-3-hydroxy-2-methylazetidin-1-yl]-4-(trifluoromethyl)pyridin-2-yl}-3-azabicyclo[3.1.0]hex-6-yl]acetic acid]
IC50 (KHK-C [1]; 8 mM fructose, 2 mM ATP, avg of (#) runs): 3.6 nM
IC50 (KHK-C [2]; [4]): 6.8 nM
IC50 (KHK-C [3]): 1.5 nM

Cc1c(N2C[C@@H]3[C@@H](CC(=O)O)[C@@H]3C2)nc(N2C[C@@H](O)[C@@H]2C)nc1C(F)(F)F [Example 24, [(1R,5S,6R)-3-{2-[(2S,3R)-3-hydroxy-2-methylazetidin-1-yl]-5-methyl-6-(trifluoromethyl)pyrimidin-4-yl}-3-azabicyclo[3.1.0]hex-6-yl]acetic acid]
IC50 (KHK-C [1]; [5]): 11 nM
IC50 (KHK-A): 12.1 nM
IC50 (KHK-C [2]; [4]): 9.7 nM
IC50 (KHK-C [2]; [6]): 9.7 nM
IC50 (KHK-C [3]; [7]): 3.3 nM

C[C@H]1CCN1c1nc(C(F)F)c(Cl)c(N2C[C@@H]3[C@@H](CC(=O)O)[C@@H]3C2)n1 [Example 40, [(1R,5S,6R)-3-{5-chloro-6-(difluoromethyl)-2-[(2S)-2-methylazetidin-1-yl]pyrimidin-4-yl}-3-azabicyclo[3.1.0]hex-6-yl]acetic acid]
IC50 (KHK-A): 37.9 nM
IC50 (KHK-C [2]; [4]): 11.1 nM
IC50 (KHK-C [2]; [6]): 11.1 nM
IC50 (KHK-C [3]; [7]): 3.7 nM

Cc1c(N2C[C@@H]3[C@@H](CC(=O)O)[C@@H]3C2)nc(N2CC[C@@H]2C)nc1C(F)(F)F [Example 42, [(1R,5S,6R)-3-{5-methyl-2-[(2S)-2-methylazetidin-1-yl]-6-(trifluoromethyl)pyrimidin-4-yl}-3-azabicyclo[3.1.0]hex-6-yl]acetic acid]
IC50 (KHK-A): 10.5 nM
IC50 (KHK-C [2]; [4]): 8.8 nM
IC50 (KHK-C [2]; [6]): 8.8 nM
IC50 (KHK-C [3]; [7]): 2.4 nM

Cc1c(C(F)F)nc(N2CC[C@@H]2C)nc1N1C[C@@H]2[C@@H](CC(=O)O)[C@@H]2C1 [Example 43, [(1R,5S,6R)-3-{6-(difluoromethyl)-5-methyl-2-[(2S)-2-methylazetidin-1-yl]pyrimidin-4-yl}-3-azabicyclo[3.1.0]hex-6-yl]acetic acid]
IC50 (KHK-A): 48.6 nM
IC50 (KHK-C [2]; [4]): 17.8 nM
IC50 (KHK-C [2]; [6]): 17.8 nM
IC50 (KHK-C [3]; [7]): 8 nM

C[C@H]1[C@H](O)CN1c1nc(N2C[C@@H]3[C@@H](CC(=O)O)[C@@H]3C2)c(F)c(C(C)(F)F)c1C#N [Example 50, [(1R,5S,6R)-3-{5-cyano-4-(1,1-difluoroethyl)-3-fluoro-6-[(2S,3R)-3-hydroxy-2-methylazetidin-1-yl]pyridin-2-yl}-3-azabicyclo[3.1.0]hex-6-yl]acetic acid]
IC50 (KHK-C [1]; [5]): 2.6 nM
IC50 (KHK-C [2]; [4]): 4.4 nM
IC50 (KHK-C [2]; [6]): 4.4 nM
IC50 (KHK-C [3]; [7]): 1.5 nM

C[C@H]1[C@H](O)CN1c1nc(N2C[C@@H]3[C@@H](CCC(=O)O)[C@@H]3C2)cc(C(F)(F)F)c1C#N [Example 52, 3-[(1R,5S,6R)-3-{5-cyano-6-[(2S,3R)-3-hydroxy-2-methylazetidin-1-yl]-4-(trifluoromethyl)pyridin-2-yl}-3-azabicyclo[3.1.0]hex-6-yl]propanoic acid]
IC50 (KHK-C [2]; [6]): 82.5 nM

C[C@H]1[C@H](O)CN1c1nc(N2C[C@@H]3[C@@H](CC(=O)O)[C@@H]3C2)c(C#N)c(C(F)(F)F)n1 [Example 53, [(1R,5S,6R)-3-{5-cyano-2-[(2S,3R)-3-hydroxy-2-methylazetidin-1-yl]-6-(trifluoromethyl)pyrimidin-4-yl}-3-azabicyclo[3.1.0]hex-6-yl]acetic acid]
IC50 (KHK-C [2]; [6]): 21 nM

C[C@H]1[C@H](O)CN1c1nc(N2C[C@@H]3[C@@H](CC(=O)O)[C@@H]3C2)nc(C(F)(F)F)c1C#N [Example 54, [(1R,5S,6R)-3-{5-cyano-4-[(2S,3R)-3-hydroxy-2-methylazetidin-1-yl]-6-(trifluoromethyl)pyrimidin-2-yl}-3-azabicyclo[3.1.0]hex-6-yl]acetic acid]
IC50 (KHK-C [2]; [6]): 19 nM

C[C@@H]1N(c2nc(N3C[C@@H]4[C@@H](CC(=O)O)[C@@H]4C3)cc(C(F)F)c2C#N)C[C@@]1(C)O [Example 55, [(1R,5S,6R)-3-{5-cyano-4-(difluoromethyl)-6-[(2S,3R)-3-hydroxy-2,3-dimethylazetidin-1-yl]pyridin-2-yl}-3-azabicyclo[3.1.0]hex-6-yl]acetic acid]
IC50 (KHK-C [2]; [6]): 13.7 nM

Reference: patent US10174007B2, “Substituted 3-azabicyclo[3.1.0]hexanes as ketohexokinase inhibitors” (Pfizer Inc., priority 2015, dated 2019)
